Measurements: PubChem BioAssay AID1919000 (Molecular Pharmacology Branch, DTP, NCI, 2023)
Values joined by “and” are separate entries in the source; they are usually repeats but may differ in a detail not shown here. Identical values can stand only once.

System: 653999-131-R-J2-PDC complex spheroids, growth % test/control
Experiment: Anticancer human tumor 653999-131-R-J2-PDC patient-derived lung adenocarcinoma cell line growth inhibition [AhR]
Conditions: for viability, T/C: stronger effect = lower value
How it was run: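 Spheroids combined tumor cells with HUVEC endothelial cells and human MSCs as stroma. AhR antagonists were paired with standard or investigational drugs, each dosed in half-log steps down from near clinical Cmax, or from 10 microM where Cmax was unknown.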

[1] = curve of first compound, second compound 0.1 µM
[2] = curve of first compound, second compound 0.316 µM
[3] = curve of first compound, second compound 1 µM
[4] = curve of first compound, second compound 3.16 µM
[5] = curve of first compound, second compound 10 µM
[6] = second compound 0.1 µM, first compound 0.00316 µM
[7] = second compound 0.1 µM, first compound 0.01 µM
[8] = second compound 0.1 µM, first compound 0.0316 µM
[9] = second compound 0.1 µM, first compound 0.1 µM
[10] = second compound 0.316 µM, first compound 0.00316 µM
[11] = second compound 0.316 µM, first compound 0.01 µM
[12] = second compound 0.316 µM, first compound 0.0316 µM
[13] = second compound 0.316 µM, first compound 0.1 µM
[14] = second compound 1 µM, first compound 0.00316 µM
[15] = second compound 1 µM, first compound 0.01 µM
[16] = second compound 1 µM, first compound 0.0316 µM
[17] = second compound 1 µM, first compound 0.1 µM
[18] = second compound 3.16 µM, first compound 0.00316 µM
[19] = second compound 3.16 µM, first compound 0.01 µM
[20] = second compound 3.16 µM, first compound 0.0316 µM
[21] = second compound 3.16 µM, first compound 0.1 µM
[22] = second compound 10 µM, first compound 0.00316 µM
[23] = second compound 10 µM, first compound 0.01 µM
[24] = second compound 10 µM, first compound 0.0316 µM
[25] = second compound 10 µM, first compound 0.1 µM
[26] = second compound 0.1 µM, first compound 0.316 µM
[27] = second compound 0.1 µM, first compound 1 µM
[28] = second compound 0.316 µM, first compound 0.316 µM
[29] = second compound 0.316 µM, first compound 1 µM
[30] = second compound 1 µM, first compound 0.316 µM
[31] = second compound 1 µM, first compound 1 µM
[32] = second compound 3.16 µM, first compound 0.316 µM
[33] = second compound 3.16 µM, first compound 1 µM
[34] = second compound 10 µM, first compound 0.316 µM
[35] = second compound 10 µM, first compound 1 µM
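Note: spheroids exposed to agents for seven days.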
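Throughout, for viability, T/C: 100% = DMSO vehicle control viability.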

## CC[C@@]1(O)C(=O)OCc2c1cc1n(c2=O)Cc2cc3c(CN(C)C)c(O)ccc3nc2-1 + Cc1cncc(-c2nc(NCCc3c[nH]c4ccccc34)c3ncn(C(C)C)c3n2)c1
[1]
  IC50: 0.0342 µM
[2]
  IC50: 0.0268 µM
[3]
  IC50: 0.0301 µM
[4]
  IC50: 0.0473 µM
[5]
  IC50: 0.00463 µM
Second compound 0.1 µM, first compound 0.000316 µM
  viability, T/C: 100%
Second compound 0.1 µM, first compound 0.001 µM
  viability, T/C: 86.7%
[6]
  viability, T/C: 88.2%
[7]
  viability, T/C: 70%
[8]
  viability, T/C: 49.5%
[9]
  viability, T/C: 40.4%
Second compound 0.316 µM, first compound 0.000316 µM
  viability, T/C: 95.4%
Second compound 0.316 µM, first compound 0.001 µM
  viability, T/C: 93.2%
[10]
  viability, T/C: 83%
[11]
  viability, T/C: 72.8%
[12]
  viability, T/C: 44.6%
[13]
  viability, T/C: 33.7%
Second compound 1 µM, first compound 0.000316 µM
  viability, T/C: 106%
Second compound 1 µM, first compound 0.001 µM
  viability, T/C: 117%
[14]
  viability, T/C: 95%
[15]
  viability, T/C: 72.3%
[16]
  viability, T/C: 51.4%
[17]
  viability, T/C: 36.3%
Second compound 3.16 µM, first compound 0.000316 µM
  viability, T/C: 112%
Second compound 3.16 µM, first compound 0.001 µM
  viability, T/C: 106%
[18]
  viability, T/C: 91.5%
[19]
  viability, T/C: 77.4%
[20]
  viability, T/C: 57.5%
[21]
  viability, T/C: 36.2%
Second compound 10 µM, first compound 0.000316 µM
  viability, T/C: 55.2%
Second compound 10 µM, first compound 0.001 µM
  viability, T/C: 64.4%
[22]
  viability, T/C: 54.6%
[23]
  viability, T/C: 39.3%
[24]
  viability, T/C: 34.1%
[25]
  viability, T/C: 28.5%

## Nc1ncn(C2CC(O)C(CO)O2)c(=O)n1 (centres undefined) + CC(CO)NC(=O)c1cc(-c2ccc(Cl)cc2)nn(-c2cnn(C)c2)c1=O
[1]
  IC50: > 1 µM
[2]
  IC50: > 1 µM
[3]
  IC50: > 1 µM
[4]
  IC50: > 1 µM
[5]
  IC50: > 1 µM
[6]
  viability, T/C: 106%
[7]
  viability, T/C: 110%
[8]
  viability, T/C: 103%
[9]
  viability, T/C: 89.4%
[26]
  viability, T/C: 84.5%
[27]
  viability, T/C: 79.9%
[10]
  viability, T/C: 106%
[11]
  viability, T/C: 110%
[12]
  viability, T/C: 118%
[13]
  viability, T/C: 89.8%
[28]
  viability, T/C: 91.3%
[29]
  viability, T/C: 83%
[14]
  viability, T/C: 104%
[15]
  viability, T/C: 108%
[16]
  viability, T/C: 122%
[17]
  viability, T/C: 109%
[30]
  viability, T/C: 88.4%
[31]
  viability, T/C: 86.4%
[18]
  viability, T/C: 106%
[19]
  viability, T/C: 111%
[20]
  viability, T/C: 119%
[21]
  viability, T/C: 110%
[32]
  viability, T/C: 90.9%
[33]
  viability, T/C: 87.8%
[22]
  viability, T/C: 117%
[23]
  viability, T/C: 116%
[24]
  viability, T/C: 109%
[25]
  viability, T/C: 126%
[34]
  viability, T/C: 99%
[35]
  viability, T/C: 109%

## Nc1ccccc1NC(=O)c1ccc(CNC(=O)OCc2cccnc2)cc1
Compound 0.0316 µM
  viability, T/C: 98% and 89.6% and 98.3%
Compound 0.1 µM
  viability, T/C: 102% and 87.1% and 81%
Compound 0.316 µM
  viability, T/C: 83% and 80.2% and 77.3%
Compound 1 µM
  viability, T/C: 81% and 70.5% and 65.6%
Compound 3.16 µM
  viability, T/C: 57.5% and 63.4% and 69.3%
Compound 10 µM
  viability, T/C: 16% and 12.8% and 13.9%
Curve of compound
  IC50: 3.84 µM and 3.93 µM and 4.02 µM

## Nc1ccn(C2OC(CO)C(O)C2(F)F)c(=O)n1 (centres undefined) + Cc1cncc(-c2nc(NCCc3c[nH]c4ccccc34)c3ncn(C(C)C)c3n2)c1
[1]
  IC50: 0.211 µM
[2]
  IC50: 0.222 µM
[3]
  IC50: 0.378 µM
[4]
  IC50: 0.554 µM
[5]
  IC50: 0.166 µM
[8]
  viability, T/C: 67.8%
[9]
  viability, T/C: 57.9%
[26]
  viability, T/C: 45.5%
[27]
  viability, T/C: 38.2%
Second compound 0.1 µM, first compound 3.16 µM
  viability, T/C: 34.4%
Second compound 0.1 µM, first compound 10 µM
  viability, T/C: 33.4%
[12]
  viability, T/C: 70.9%
[13]
  viability, T/C: 60.1%
[28]
  viability, T/C: 45.5%
[29]
  viability, T/C: 38.4%
Second compound 0.316 µM, first compound 3.16 µM
  viability, T/C: 38.5%
Second compound 0.316 µM, first compound 10 µM
  viability, T/C: 35.4%
[16]
  viability, T/C: 80.1%
[17]
  viability, T/C: 66.8%
[30]
  viability, T/C: 50.1%
[31]
  viability, T/C: 42.4%
Second compound 1 µM, first compound 3.16 µM
  viability, T/C: 38.5%
Second compound 1 µM, first compound 10 µM
  viability, T/C: 33.8%
[20]
  viability, T/C: 82.4%
[21]
  viability, T/C: 70%
[32]
  viability, T/C: 56.5%
[33]
  viability, T/C: 43.5%
Second compound 3.16 µM, first compound 3.16 µM
  viability, T/C: 39.6%
Second compound 3.16 µM, first compound 10 µM
  viability, T/C: 41.9%
[24]
  viability, T/C: 61%
[25]
  viability, T/C: 55.8%
[34]
  viability, T/C: 42.4%
[35]
  viability, T/C: 43.4%
Second compound 10 µM, first compound 3.16 µM
  viability, T/C: 33.3%
Second compound 10 µM, first compound 10 µM
  viability, T/C: 33.2%

## CCc1c2c(nc3ccc(O)cc13)-c1cc3c(c(=O)n1C2)COC(=O)[C@]3(O)CC
Compound 0.000949 µM
  viability, T/C: 79% and 89.9% and 76.4%
Compound 0.003 µM
  viability, T/C: 75.3% and 80.9% and 76.6%
Compound 0.00949 µM
  viability, T/C: 54.4% and 59.1% and 45.1%
Compound 0.03 µM
  viability, T/C: 38.8% and 44.1% and 33.3%
Compound 0.0949 µM
  viability, T/C: 29.4% and 35.4% and 27.7%
Compound 0.3 µM
  viability, T/C: 20.6% and 19.6% and 16.8%
Curve of compound
  IC50: 0.0146 µM and 0.0221 µM and 0.00927 µM
